Test [1] concerns the target Nicotinic acetylcholine receptor (Rattus leucopus, UniProt Q62594).
Test [2] has as its target Histamine H2 receptor (Cavia porcellus, UniProt P47747).
The target in test [3] is T1, Galanin peptides (Rattus norvegicus, UniProt P10683).
T1 sequence (P10683 whole entry): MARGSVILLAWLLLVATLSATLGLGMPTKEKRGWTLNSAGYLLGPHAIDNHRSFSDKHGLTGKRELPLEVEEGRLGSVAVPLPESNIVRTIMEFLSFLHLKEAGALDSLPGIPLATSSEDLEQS

Test [4] deals with Glutamate receptor ionotropic, NMDA 1 (Rattus norvegicus, UniProt P35439).
For test [5], the target named is D(3) dopamine receptor (Homo sapiens, UniProt P35462).
Test [6] addresses T2, Alpha-2C adrenergic receptor (Rattus norvegicus, UniProt P22086).
T2 sequence (P22086 whole entry): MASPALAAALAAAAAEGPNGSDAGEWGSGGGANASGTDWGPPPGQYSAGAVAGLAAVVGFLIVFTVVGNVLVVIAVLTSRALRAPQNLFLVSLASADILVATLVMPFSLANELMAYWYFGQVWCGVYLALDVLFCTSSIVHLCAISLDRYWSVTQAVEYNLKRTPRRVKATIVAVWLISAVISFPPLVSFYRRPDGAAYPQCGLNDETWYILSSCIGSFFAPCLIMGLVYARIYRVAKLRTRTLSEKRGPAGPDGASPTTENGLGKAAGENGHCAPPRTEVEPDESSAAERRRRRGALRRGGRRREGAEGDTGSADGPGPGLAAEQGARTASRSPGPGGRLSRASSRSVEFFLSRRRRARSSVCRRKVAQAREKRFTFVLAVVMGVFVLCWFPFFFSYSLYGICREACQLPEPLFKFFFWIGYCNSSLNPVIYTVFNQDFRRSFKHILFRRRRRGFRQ

The target of test [7] is Beta-2 adrenergic receptor (Rattus norvegicus, UniProt P10608).
In test [8] the target is D(2) dopamine receptor (Homo sapiens, UniProt P14416).
For test [9], the target named is Glutamate receptor 3 (Rattus norvegicus, UniProt P19492).
Test [10] has as its target T3, Muscarinic acetylcholine receptor M2 (Rattus norvegicus, UniProt P10980).
T3 sequence (P10980 whole entry): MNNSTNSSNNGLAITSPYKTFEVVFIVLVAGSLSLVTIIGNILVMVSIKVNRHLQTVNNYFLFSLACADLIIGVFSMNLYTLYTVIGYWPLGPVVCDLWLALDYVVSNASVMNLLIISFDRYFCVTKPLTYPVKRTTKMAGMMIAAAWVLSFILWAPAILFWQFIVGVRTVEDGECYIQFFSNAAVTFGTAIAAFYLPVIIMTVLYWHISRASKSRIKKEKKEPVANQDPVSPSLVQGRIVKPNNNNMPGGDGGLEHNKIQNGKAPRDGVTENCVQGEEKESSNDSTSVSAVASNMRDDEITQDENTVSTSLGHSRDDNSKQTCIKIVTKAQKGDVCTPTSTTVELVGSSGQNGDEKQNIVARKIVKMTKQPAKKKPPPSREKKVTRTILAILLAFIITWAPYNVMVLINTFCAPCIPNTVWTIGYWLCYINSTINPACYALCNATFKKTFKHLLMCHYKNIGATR

The target of test [11] is Gamma-aminobutyric acid receptor subunit alpha-1 (Rattus norvegicus, UniProt P62813).
Test [12] has as its target D(1A) dopamine receptor (Rattus norvegicus, UniProt P18901).
Test [13] addresses Histamine H1 receptor (Rattus norvegicus, UniProt P31390).
Test [14] deals with 5-hydroxytryptamine receptor 2A (Rattus norvegicus, UniProt P14842).
The target in test [15] is 5-hydroxytryptamine receptor 1B (Rattus norvegicus, UniProt P28564).
For test [16], the target named is 5-hydroxytryptamine receptor 7 (Rattus norvegicus, UniProt P32305).
The target in test [17] is T4, 5-hydroxytryptamine receptor 1A (Rattus norvegicus, UniProt P19327).
T4 sequence (P19327 whole entry): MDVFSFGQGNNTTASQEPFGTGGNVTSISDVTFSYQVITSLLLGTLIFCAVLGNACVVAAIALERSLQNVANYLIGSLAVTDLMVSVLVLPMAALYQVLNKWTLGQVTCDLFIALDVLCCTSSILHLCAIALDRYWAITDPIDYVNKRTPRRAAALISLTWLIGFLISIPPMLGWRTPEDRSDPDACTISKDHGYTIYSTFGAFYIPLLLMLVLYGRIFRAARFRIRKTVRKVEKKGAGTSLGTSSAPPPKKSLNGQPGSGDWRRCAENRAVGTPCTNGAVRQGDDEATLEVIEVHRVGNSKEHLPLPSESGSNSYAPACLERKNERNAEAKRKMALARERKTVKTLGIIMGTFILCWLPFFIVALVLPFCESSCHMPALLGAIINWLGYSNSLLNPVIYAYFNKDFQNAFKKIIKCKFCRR

The target of test [18] is 5-hydroxytryptamine receptor 6 (Rattus norvegicus, UniProt P31388).
Test [19] deals with T5, Alpha-1A adrenergic receptor (Rattus norvegicus, UniProt P43140).
T5 sequence (P43140 whole entry): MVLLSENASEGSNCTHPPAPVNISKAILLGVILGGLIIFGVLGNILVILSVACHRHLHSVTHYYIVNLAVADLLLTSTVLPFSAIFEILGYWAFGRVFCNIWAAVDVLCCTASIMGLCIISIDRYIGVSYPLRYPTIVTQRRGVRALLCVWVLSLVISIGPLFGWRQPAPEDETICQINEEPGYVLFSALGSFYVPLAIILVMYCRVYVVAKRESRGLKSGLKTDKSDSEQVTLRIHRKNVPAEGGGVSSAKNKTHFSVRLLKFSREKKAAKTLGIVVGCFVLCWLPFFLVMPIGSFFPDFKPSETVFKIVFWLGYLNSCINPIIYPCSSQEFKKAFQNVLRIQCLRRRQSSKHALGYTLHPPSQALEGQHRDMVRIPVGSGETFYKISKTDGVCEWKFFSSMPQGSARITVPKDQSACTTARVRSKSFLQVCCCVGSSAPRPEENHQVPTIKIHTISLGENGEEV

Sequence of Histamine H2 receptor (P47747 whole entry): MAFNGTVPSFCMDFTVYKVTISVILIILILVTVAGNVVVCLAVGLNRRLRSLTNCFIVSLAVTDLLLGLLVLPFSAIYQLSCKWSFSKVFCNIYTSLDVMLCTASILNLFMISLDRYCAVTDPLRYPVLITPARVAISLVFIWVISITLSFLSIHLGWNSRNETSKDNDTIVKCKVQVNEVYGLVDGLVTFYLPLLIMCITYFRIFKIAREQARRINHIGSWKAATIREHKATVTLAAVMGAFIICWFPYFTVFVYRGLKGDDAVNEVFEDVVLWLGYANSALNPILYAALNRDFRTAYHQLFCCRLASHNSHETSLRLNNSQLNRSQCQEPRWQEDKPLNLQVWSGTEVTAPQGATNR
Sequence of Histamine H1 receptor (P31390 whole entry): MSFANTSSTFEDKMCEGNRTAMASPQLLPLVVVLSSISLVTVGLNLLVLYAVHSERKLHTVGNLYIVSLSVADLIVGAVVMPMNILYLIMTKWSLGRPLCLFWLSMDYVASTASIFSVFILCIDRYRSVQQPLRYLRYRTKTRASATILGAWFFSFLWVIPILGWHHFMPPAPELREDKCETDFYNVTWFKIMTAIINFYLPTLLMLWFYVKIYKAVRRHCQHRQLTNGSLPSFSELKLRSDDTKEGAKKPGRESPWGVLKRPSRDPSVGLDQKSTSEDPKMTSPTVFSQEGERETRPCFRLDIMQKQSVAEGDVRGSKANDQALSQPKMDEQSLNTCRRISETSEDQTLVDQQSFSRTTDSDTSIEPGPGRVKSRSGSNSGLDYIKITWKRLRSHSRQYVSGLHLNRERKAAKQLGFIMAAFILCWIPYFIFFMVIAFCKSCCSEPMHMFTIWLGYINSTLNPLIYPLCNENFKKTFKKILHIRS
Sequence of D(3) dopamine receptor (P35462 as listed by the source): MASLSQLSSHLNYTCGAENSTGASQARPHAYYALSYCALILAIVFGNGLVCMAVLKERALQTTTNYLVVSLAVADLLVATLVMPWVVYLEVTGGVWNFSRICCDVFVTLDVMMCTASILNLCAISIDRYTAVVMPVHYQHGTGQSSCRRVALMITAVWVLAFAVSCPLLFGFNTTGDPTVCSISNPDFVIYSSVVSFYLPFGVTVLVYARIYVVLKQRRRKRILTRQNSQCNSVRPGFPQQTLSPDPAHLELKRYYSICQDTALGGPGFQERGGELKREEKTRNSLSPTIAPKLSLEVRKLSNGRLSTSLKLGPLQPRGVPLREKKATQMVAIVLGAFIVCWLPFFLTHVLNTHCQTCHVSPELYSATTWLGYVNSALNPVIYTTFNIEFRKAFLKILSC
Sequence of D(2) dopamine receptor (P14416 whole entry): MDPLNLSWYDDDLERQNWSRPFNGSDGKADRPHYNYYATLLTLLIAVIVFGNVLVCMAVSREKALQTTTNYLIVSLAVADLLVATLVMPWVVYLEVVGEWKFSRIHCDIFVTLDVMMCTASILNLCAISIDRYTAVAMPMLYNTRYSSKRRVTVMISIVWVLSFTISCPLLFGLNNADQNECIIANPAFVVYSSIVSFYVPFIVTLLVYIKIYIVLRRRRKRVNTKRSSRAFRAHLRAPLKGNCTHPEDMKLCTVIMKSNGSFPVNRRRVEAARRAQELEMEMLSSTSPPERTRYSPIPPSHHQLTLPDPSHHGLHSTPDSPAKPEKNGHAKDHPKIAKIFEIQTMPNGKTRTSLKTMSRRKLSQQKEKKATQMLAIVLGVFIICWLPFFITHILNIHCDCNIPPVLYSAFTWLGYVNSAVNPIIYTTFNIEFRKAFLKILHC
Sequence of Gamma-aminobutyric acid receptor subunit alpha-1 (P62813 whole entry): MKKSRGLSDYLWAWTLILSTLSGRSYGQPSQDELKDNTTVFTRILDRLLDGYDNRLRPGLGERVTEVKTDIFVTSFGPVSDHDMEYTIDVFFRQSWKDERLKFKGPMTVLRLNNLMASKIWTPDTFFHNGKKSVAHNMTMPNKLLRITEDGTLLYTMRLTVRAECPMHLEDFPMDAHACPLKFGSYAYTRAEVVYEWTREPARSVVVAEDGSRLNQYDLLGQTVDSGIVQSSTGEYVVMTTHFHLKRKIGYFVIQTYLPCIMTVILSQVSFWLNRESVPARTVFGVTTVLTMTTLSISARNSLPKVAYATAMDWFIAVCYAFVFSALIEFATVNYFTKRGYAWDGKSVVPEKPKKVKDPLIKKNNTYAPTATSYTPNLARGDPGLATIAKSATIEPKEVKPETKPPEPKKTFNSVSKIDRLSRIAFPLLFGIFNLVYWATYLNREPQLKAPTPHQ
Sequence of Glutamate receptor 3 (P19492 whole entry): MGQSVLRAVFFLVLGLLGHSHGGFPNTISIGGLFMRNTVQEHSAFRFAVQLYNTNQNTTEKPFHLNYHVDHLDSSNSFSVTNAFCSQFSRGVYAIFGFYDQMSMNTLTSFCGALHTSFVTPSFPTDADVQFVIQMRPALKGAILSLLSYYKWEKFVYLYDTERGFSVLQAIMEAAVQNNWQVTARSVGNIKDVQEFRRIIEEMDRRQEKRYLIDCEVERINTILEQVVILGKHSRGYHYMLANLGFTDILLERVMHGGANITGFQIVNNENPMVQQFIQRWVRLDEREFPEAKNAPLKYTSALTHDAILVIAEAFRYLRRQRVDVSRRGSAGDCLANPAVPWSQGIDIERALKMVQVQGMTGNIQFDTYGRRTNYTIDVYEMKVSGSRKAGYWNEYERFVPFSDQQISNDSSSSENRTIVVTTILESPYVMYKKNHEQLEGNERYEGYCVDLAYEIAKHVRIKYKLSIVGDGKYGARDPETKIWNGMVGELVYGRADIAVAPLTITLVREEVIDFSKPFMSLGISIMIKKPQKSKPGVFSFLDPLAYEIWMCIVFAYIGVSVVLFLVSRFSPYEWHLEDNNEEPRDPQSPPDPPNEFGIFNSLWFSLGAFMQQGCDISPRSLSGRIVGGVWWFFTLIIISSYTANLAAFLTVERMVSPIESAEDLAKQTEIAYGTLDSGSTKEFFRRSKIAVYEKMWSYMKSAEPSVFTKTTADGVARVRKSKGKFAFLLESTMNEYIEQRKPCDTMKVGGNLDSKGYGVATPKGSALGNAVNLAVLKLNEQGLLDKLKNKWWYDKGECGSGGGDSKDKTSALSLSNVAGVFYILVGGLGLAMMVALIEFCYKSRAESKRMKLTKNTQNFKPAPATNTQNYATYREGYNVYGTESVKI
Sequence of Nicotinic acetylcholine receptor (Q62594 whole entry): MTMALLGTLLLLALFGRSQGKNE
Sequence of D(1A) dopamine receptor (P18901 whole entry): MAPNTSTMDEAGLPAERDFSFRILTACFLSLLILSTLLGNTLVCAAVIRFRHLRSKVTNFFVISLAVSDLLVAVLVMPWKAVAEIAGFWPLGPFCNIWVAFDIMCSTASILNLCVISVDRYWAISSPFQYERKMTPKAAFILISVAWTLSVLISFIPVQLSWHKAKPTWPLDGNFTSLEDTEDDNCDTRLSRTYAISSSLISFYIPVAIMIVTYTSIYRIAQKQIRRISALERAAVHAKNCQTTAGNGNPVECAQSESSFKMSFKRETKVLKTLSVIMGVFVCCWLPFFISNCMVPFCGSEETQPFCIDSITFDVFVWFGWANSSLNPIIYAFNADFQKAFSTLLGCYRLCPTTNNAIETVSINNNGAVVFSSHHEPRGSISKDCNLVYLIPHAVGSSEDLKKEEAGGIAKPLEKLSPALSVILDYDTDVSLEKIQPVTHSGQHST
Sequence of 5-hydroxytryptamine receptor 2A (P14842 whole entry): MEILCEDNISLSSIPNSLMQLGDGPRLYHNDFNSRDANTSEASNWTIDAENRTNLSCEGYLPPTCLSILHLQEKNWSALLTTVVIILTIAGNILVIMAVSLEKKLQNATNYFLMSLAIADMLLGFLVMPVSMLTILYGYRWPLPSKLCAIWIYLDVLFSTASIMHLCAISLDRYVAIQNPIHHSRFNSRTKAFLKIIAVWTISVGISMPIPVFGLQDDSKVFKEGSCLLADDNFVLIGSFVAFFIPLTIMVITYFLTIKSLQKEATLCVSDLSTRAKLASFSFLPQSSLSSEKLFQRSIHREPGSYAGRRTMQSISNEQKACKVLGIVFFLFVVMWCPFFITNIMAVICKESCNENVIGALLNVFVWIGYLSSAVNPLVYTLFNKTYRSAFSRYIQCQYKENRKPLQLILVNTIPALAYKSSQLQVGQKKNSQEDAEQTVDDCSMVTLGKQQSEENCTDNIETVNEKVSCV
Sequence of Beta-2 adrenergic receptor (P10608 whole entry): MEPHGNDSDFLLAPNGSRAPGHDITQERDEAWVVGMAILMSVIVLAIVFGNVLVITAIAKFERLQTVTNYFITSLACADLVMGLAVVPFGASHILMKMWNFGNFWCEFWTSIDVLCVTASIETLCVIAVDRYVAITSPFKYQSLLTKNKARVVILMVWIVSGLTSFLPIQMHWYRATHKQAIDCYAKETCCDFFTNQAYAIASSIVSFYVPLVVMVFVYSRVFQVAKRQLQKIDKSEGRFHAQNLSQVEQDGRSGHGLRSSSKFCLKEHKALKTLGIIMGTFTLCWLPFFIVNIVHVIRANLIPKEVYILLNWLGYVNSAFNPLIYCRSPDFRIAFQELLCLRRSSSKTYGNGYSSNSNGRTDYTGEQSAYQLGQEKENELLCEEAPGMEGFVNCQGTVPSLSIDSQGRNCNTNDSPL
Sequence of 5-hydroxytryptamine receptor 6 (P31388 whole entry): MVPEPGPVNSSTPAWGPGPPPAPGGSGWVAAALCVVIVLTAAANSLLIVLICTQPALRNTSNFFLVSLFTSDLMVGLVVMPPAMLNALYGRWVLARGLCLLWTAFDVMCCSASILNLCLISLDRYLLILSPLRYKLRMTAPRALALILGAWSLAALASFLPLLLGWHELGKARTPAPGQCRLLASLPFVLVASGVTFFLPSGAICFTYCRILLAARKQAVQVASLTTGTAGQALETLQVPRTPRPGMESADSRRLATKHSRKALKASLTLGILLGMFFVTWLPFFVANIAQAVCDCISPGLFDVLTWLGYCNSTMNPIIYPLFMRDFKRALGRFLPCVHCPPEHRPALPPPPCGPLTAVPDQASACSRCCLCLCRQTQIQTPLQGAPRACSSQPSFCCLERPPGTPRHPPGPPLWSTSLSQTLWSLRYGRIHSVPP

As to `COc1ccccc1N1CCN(CCN(C(=O)C2CCCCC2)c2ccccn2)CC1`, the Ki in test [1] was more than 10000 nM; in test [2] it was more than 10000 nM; in test [3] it was 2600 nM; in test [4] it was more than 10000 nM; in test [5], 67 nM; in test [6] it was 1000 nM. Moreover, the inhibition constant (Ki) in test [7] was 1000 nM; in test [8] it was 79 nM; in [9], more than 10000 nM; in test [10] it was 1000 nM; in test [11], more than 10000 nM; in test [12] it was 1000 nM. The Ki in test [13] is more than 10000 nM; in test [14], 1100 nM.
Turning to `NC(=O)c1ccc(F)c2c1CC(N(C1CCC1)C1CCC1)CO2` (stereo not drawn) [CAS_3055171], the Ki in test [1] was more than 10000 nM; in [15], 1000 nM; in test [2] it was more than 10000 nM; in test [3], 2600 nM; in test [16] it was 1900 nM; in test [4], more than 10000 nM. Further, the Ki in test [17] was 0.59 nM; in test [5], 1000 nM; in test [6], 1000 nM; in [7], 340 nM; in test [8], 1000 nM; in [18] it was more than 10000 nM. For the same compound, the Ki is more than 10000 nM in test [9]; 260 nM in test [19]; 1000 nM in [10]; more than 10000 nM in test [11]; 1000 nM in test [12]; more than 10000 nM in [13]. Further, the Ki in [14] is more than 10000 nM.

(Values after BindingDB's records for PubMed 9336327 (Preclinical R & D, Astra Arcus, 1997).)
